Data reported in patent publication US11246871B2, “Targeting adenosine A2A receptors for the treatment of levodopa-induced dyskinesias” (Northwestern University, priority 2016, dated 2022).
Entries after “also recorded” stand apart in the source; their conditions may differ.

What was measured:
iSPNs = experiment: Patch-clamp recording of LTD induction in striatal slices from 6-OHDA lesioned animals; parameters: species or system Mouse; details: dyskinetic ON-state after L-DOPA
Experimental: (§1) Mice were deeply anesthetized intraperitoneally with a mixture of ketamine and xylazine. Parasagittal slices were cut in ice-cold aCSF. Whole-cell and perforated-patch recordings were performed in the dorsolateral striatum at 30-31° C. […] These protocols consisted of 20-60 trains of five bursts repeated at 0.1 Hz, with each burst composed of three APs preceded with three EPSPs at 50 Hz (pre-post timing pairing, +5 ms) or three APs followed by one EPSP (post-pre timing pairing, −10 ms). To ensure induction of consistent synaptic plasticity, postsynaptic neurons were depolarized to −70 mV from their typical resting membrane potentials (−85 mV) during their induction. GABAA was blocked by the bath application of gabazine (10 μM).
(§2) Data analysis was conducted with Igor Pro 6 and Clampfit 9. EPSP amplitude was calculated from 50 sweeps immediately before the start of induction and 20-30 min after the end of induction. Compiled data were expressed as mean±SEM. Statistical tests were performed using Excel and SigmaStat. Nonparametric Mann-Whitney or Wilcoxon tests were used to assess the experiment results, using a probability threshold of 0.05. Statistical analyses for behavioral data were carried out using Prism 6. Data were analyzed using parametric repeated measure two-way ANOVA followed by post hoc Bonferroni's test.

dSPNs = experiment: Patch-clamp recording of LTP induction in striatal slices from 6-OHDA lesioned animals; parameters: species or system Mouse; details: shortly after the last injection of L-DOPA (ON-state)
Experimental: as §1, §2

[1] = test system: unilateral 6-OHDA lesioned mice (L-DOPA-induced dyskinesia); experiment: Mouse unilateral 6-OHDA model and LID, abnormal involuntary movements (AIMs) scoring; type: in vivo
Experimental: Mouse Unilateral 6-Hydroxydopamine (6-OHDA) Model and LID
Mice were anaesthetized with an isoflurane precision vaporizer, placed in a stereotaxic frame, and a hole was drilled over the medial forebrain bundle. After exposing the skull, 3.5 mg ml^−1 free base 6-OHDA with 0.02% ascorbic acid was injected using a glass micropipette. Three weeks after surgery, the degree of damage to nigrostriatal DA neurons was assessed with a forelimb-use asymmetry test. Striatal sections from a subset of mice were stained with tyrosine hydroxylase to verify successful lesion. One day after the test, mice underwent behavioral testing for abnormal involuntary movements (AIMs) following L-DOPA treatment. Treatment with L-DOPA was given daily for 15 days at the doses of 3 mg kg^−1. Animals were randomly allocated to receive treatment with L-DOPA and vehicle, or L-DOPA and an A2a receptor antagonist.
as §2, with “Nonparametric Mann-Whitney or Wilcoxon tests were used to assess the experiment results, using a probability threshold of 0.05. Statistical analyses for behavioral data were carried out using Prism 6.” left out

SMILES	LTD induction in iSPNs (iSPNs)	LTP induction in dSPNs (dSPNs)	development of LID behaviors ([1]; systemic tozadenant 30 mg/kg 5 hours after L-DOPA doses, L-DOPA 3 mg/kg daily for 15 days, vs L-DOPA+vehicle, p<0.05)	LID scores induced by subsequent doses of L-DOPA (ON-state) ([1]; treated in the LID OFF-state)
N[C@@H](Cc1ccc(O)c(O)c1)C(=O)O [L-DOPA, L-3,4-dihydroxyphenylalanine]	LTD was recovered; also recorded: LTD in iSPNs	LTP was recovered in dSPNs; also recorded: restores LTP in dSPNs	–	–
COc1ccc(N2CCOCC2)c2sc(NC(=O)N3CCC(C)(O)CC3)nc12 [tozadenant]	–	–	reduces the development of LID behaviors	significantly attenuates LID scores
